Consider four molecules from patent US8673578B2, “Methods of identifying antagonists of the hTAS2R46 bitter taste receptor” (Deutsches Institut für Ernahrungsforschung Potsdam-Rehbrücke, priority 2009, dated 2014).

Structures are written as SMILES.

The target in test [1] is T1, hTAS2R46 (Homo sapiens, UniProt P59540).
T1 construct: expressed in transfected cells; host or cells: HEK293T cells stably expressing chimeric Gα16gust44, transient transfection
T1 sequence (P59540 1-309): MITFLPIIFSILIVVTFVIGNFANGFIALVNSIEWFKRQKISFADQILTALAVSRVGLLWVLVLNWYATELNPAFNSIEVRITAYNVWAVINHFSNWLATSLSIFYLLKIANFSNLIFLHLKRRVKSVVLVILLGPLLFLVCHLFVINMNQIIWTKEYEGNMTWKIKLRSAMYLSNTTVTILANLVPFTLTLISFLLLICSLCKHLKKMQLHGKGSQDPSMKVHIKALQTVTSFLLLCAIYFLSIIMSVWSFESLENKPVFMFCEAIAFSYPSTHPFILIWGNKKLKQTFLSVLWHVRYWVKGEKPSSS
Briefly: calcium imaging (FLIPR), activation of hTAS2R-transfected HEK293T-Gα16gust44 cells. Type of test: cell-based. Particulars: absence of agonist. An excerpt: (§1) Human TAS2R cDNAs were cloned into pcDNA5/FRT (Invitrogen, San Diego, Calif.). For adequate plasma membrane targeting, receptor cDNA was fused to the aminoterminal sequence of the rat somatostatin type 3 receptor at the aminoterminus of the recombinant protein (Bufe, B., T. Hofmann, et al. (2002) Nat Genet. 32(3): 397-401). For immunological detection, the Herpes simplex Glycoprotein D epitope was supplemented at the carboxyterminus of the recombinant protein (Bufe et al., supra). Receptor constructs were transiently transfected into HEK293T cells stably expressing the chimeric G protein subunit Gα16gust44 (Ueda, T., S. Ugawa, et al. (2003) J Neurosci 23(19): 7376-80) using Lipofectamine 2000 (Invitrogen, San Diego, Calif.) in 96-well plates.
Calcium Imaging experiments were performed 24 h after transfection using a Fluorometric Imaging Plate Reader (FLIPR, Molecular Devices, Munich, Germany) as previously described (Bufe et al., supra). Taste active compounds were ordered from Sigma (Sigma-Aldrich, Taufkirchen, Germany). Absinthin, 3β hydroxy dihydro costunolide and 3β hydroxy pelenolide were kindly provided by Giovanni Appendino (Novara, Italy). Test substances were directly dissolved in C1 buffer (130 mM NaCl, 10 mM Na-Hepes, 10 mM Glucose, 5 mM KCl, 2 mM CaCl2, pH 7.4) or in DMSO, respectively. DMSO stocks were further diluted in C1 buffer not exceeding a final DMSO concentration of 1% on the cells. For the investigation of antagonistic effects, test substances were premixed. Agonists were applied at concentrations corresponding to EC90, except where indicated otherwise (Table 2). Data were collected from 3 independent experiments performed in quadruplicates and processed with SigmaPlot (SPSS, Chicago, Ill.). Fluorescence signals after application of test substances were corrected for and normalized to background fluorescence (ΔF/F═(F−F0)/F0), and baseline noise was subtracted. Calculation of dose-response curves was done by nonlinear regression using the function f(y)=((a−d)/(1+(x/EC50)^nH)+d). […]
(§2) Finally, the impact of chemical modifications on the antagonistic properties of 3β hydroxy dihydro costunolide on hTAS2R46-expressing cells was studied. Derivatives of 3β hydroxy dihydro costunolide with site-directed modifications at C3 and C11 were generated (FIG. 7A) These derivatives were tested for activation or inhibition of hTAS2R46-expressing cells in the absence or presence of the agonist strychnine (3 μM) and half-maximum effective concentrations (EC50) or half-maximal inhibitory concentrations were calculated (FIG. 7B).

Test [2] deals with T1, hTAS2R46. Briefly: calcium imaging (FLIPR), effect on agonist-dependent hTAS2R activation. Type of test: cell-based. Particulars: presence of agonist strychnine 3 μM.
Text: as §1
Calcium Imaging experiments were performed 24 h after transfection using a Fluorometric Imaging Plate Reader (FLIPR, Molecular Devices, Munich, Germany) as previously described (Bufe et al., supra). Taste active compounds were ordered from Sigma (Sigma-Aldrich, Taufkirchen, Germany). Absinthin, 3β hydroxy dihydro costunolide and 3β hydroxy pelenolide were kindly provided by Giovanni Appendino (Novara, Italy). Test substances were directly dissolved in C1 buffer (130 mM NaCl, 10 mM Na-Hepes, 10 mM Glucose, 5 mM KCl, 2 mM CaCl2, pH 7.4) or in DMSO, respectively. DMSO stocks were further diluted in C1 buffer not exceeding a final DMSO concentration of 1% on the cells. For the investigation of antagonistic effects, test substances were premixed. Agonists were applied at concentrations corresponding to EC90, except where indicated otherwise (Table 2). Data were collected from 3 independent experiments performed in quadruplicates and processed with SigmaPlot (SPSS, Chicago, Ill.). Fluorescence signals after application of test substances were corrected for and normalized to background fluorescence (ΔF/F═(F−F0)/F0), and baseline noise was subtracted. Calculation of dose-response curves was done by nonlinear regression using the function f(y)=((a−d)/(1+(x/EC50)^nH)+d).
To test 3β hydroxy dihydro costunolide and 3β hydroxy pelenolide for antagonistic or enhancing effects on hTAS2R activation, transfected cells were stimulated with cognate agonist bitter substances at EC90 concentrations (Table 2) without 3β hydroxy dihydro costunolide and 3β hydroxy pelenolide. The cellular responses after application of the agonist alone were set to 100%, responses obtained after coapplication of agonists and 100 μM 3β hydroxy dihydro costunolide or 100 μM 3β hydroxy pelenolide are shown relative to this value (FIG. 4).
Next we determined concentrations of half-maximal inhibition of TAS2R46. FIG. 5 illustrates the concentration-inhibition curves of TAS2R46 activated by picrotoxinin in the presence of various concentrations of 3β hydroxy dihydro costunolide or 3β hydroxy pelenolide. […] In agreement with the data described above the costunolide analog appears to be more potently inhibiting TAS2R46 than the pelenolide analog. […] As expected 3β hydroxy pelenolide has to be employed at ˜6 fold higher concentrations than 3β hydroxy dihydro costunolide to achieve 50% receptor inhibition.
Next, we established concentration-response curves for strychnine at TAS2R46 in the presence of various concentrations of 3β hydroxy dihydro costunolide.
as §2

In the case of `CC(=O)O[C@H]1C/C=C(\C)CC[C@H]2[C@H](C)C(=O)O[C@@H]2/C=C/1C` [3β hydroxy dihydro costunolide acetate], the “action on hTAS2R46-expressing cells (activation)” value on hTAS2R46 [1] is given as “agonists”.
The same measure, in the same setting: with `C/C1=C\[C@H]2OC(=O)[C@@H](C)[C@@H]2CC/C(C)=C/CC1` [dihydro costunolide] the entry was “no influence on the agonistic properties”.
Turning to `C/C1=C\CC(=O)/C(C)=C/[C@H]2OC(=O)[C@@H](C)[C@@H]2CC1` [3keto dihydro costunolide], the “action on hTAS2R46-expressing cells (inhibition)” value at hTAS2R46 [2] was “antagonists”.
As to `C=C1C(=O)O[C@@H]2/C=C(\C)CC/C=C(\C)CC[C@@H]12` [Costunolide, reference compound], the “action on hTAS2R46-expressing cells (activation)” value at hTAS2R46 [1] is recorded as “agonist”.
